Measurements as given in patent publication US20230172913A1, “COMPOUNDS FOR USE IN THE REACTIVATION OF HIV IN LATENT HIV-INFECTED CELLS” (CENTRE NATIONAL DE LA RECHERCHE SCIENTIFIQUE, priority 2020, published 2023).
Values joined by “and” are separate entries in the source; they are usually repeats but may differ in a detail not shown here. Identical values can stand only once.

Columns and labels:
J-Lat 9.2 latent cells = experiment: LRA activity on J-Lat 9.2 latent cells (GFP, FACS); type: cell-based; settings: 5 μM, 24 h, GFP fluorescence by FACS
Description: FIG. 3A LRA activity of the compounds (1), (2) (3) (C-1, C-2, C-3) and SAHA (histone deacetylase inhibitor) at 5 μM on J-Lat 9.2 latent cells (derived from Jurkats). J-Lat 9.2 have a complete (single) HIV genome with a non-functional Env gene, and a GFP instead of Nef (Symons, J., and al., Retrovirology, 2017. 14(1): p. 2; Jordan, A., and al., The EMBO journal, 2003. 22(8): p. 1868-77). The activation of these viruses can be followed by the production of GFP and therefore by the detection of green fluorescence in the cells, followed by FACS. n=3. Means+/−SEM.**, p<0.01, compared to the drug-free control (One-way ANOVA).
To test the LRA effect of the molecules, JLat9.2 cells were first used. This latent cell line (source: NIH AIDS Reagents Program, NARP) derived from Jurkat cells contains an HIV genome with an inactivated Env gene and a GFP instead of Nef (Retrovirology, 14 (2017) 2). The lifting of latency is accompanied by the emission of fluorescence from GFP. The cells were treated with molecules at 5 μM for 24 h before analysis of the cells with a FACScalibur to determine the % of cells emitting fluorescence. It can be seen in FIG. 3A that the compound (2) at 5 μM has a significant LRA activity, of the order of 20-30% of that of SAHA.

[1] = system: latent T-CD4+ lymphocyte cells from HIV-1 patients; experiment: Ex vivo LRA activity on quiescent T-CD4+ cells of HIV-1 patients (p24); type: cell-based, human; settings: for LRA efficacy compared with BST-1: 50-100 nM, 18-20 h, p24 in supernatant
Description: FIG. 5 Ex vivo LRA activity on quiescent T-CD4^+ lymphocyte cells of HIV-1 patients. T-CD4 cells were isolated by negative selection before elimination of activated cells (CD25^+, CD69^+, HLA-DR^+) to obtain quiescent cells which were treated with drugs for 18-20 h to avoid reinfections. The LRA activity of the compounds (2) (C-2) and (3) (C-3) was determined by monitoring the viral protein p24 in the supernatant using a commercial ELISA test improved by the use of a luminescent substrate. The detection limit of p24 was 0.2 pg/ml. The response to BST-1 (10 nM) was set at 100% to allow comparison of LRA efficacy between patients (1 point=1 patient).
The ex vivo LRA activity of the compounds according to the invention was tested on latent T-CD4^+ lymphocyte cells from HIV-1 patients. All 8 patients had been under ART treatment for at least 6 months and their viral load was undetectable. Blood samples (20 ml) were taken (agreement with Montpellier University Hospital, Resp: Dr Edouard Tuaillon). After purification of white blood cells on Ficoll-Hypaque, negative selection of T-CD4^+ cells, elimination of activated T-CD4 cells (CD25^+, CD69^+, HLA-DR^+) (Milenyi kits), quiescent cells were treated with the compounds for 18-20 h to avoid reinfections. An assay p24 was then performed using a luminescent reagent (Luminata forte, Millipore) at the end of the Innotest. The sensitivity of the test thus modified is ˜0.2 pg p24/ml. The response to BST-1 varied between patients from 0.2 to 80 pg/ml.

Tat protein [2] = experiment: Transactivation by Tat in HeLa cells (LTR-firefly/TK-renilla luciferase); type: cell-based, HIV-1; settings: for transactivation by extracellular Tat relative to control / transactivation by intracellular Tat relative to negative control: 5 μM compound, HeLa, 24 h; for transactivation by extracellular Tat relative to control: 200 nM Tat extra; for transactivation by intracellular Tat relative to negative control: Tat transfected (Tat intra)
Description: FIG. 2 Evaluation of the transactivating activity of the Tat protein of HeLa cells in the presence of 5 μM of the compound (2) (C-2) or of the compound (3) (C-3). HeLa cells were transfected with plasmids containing LTR-firefly and TK-renilla. In the Tat intra condition, Tat is co-transfected. 18 h after transfection the compounds (2) or (3) were added (5 μM), as well as 200 nM Tat for the Tat extra condition. The cells are lysed for the luciferase tests 24 hours later. The firefly/renilla ratio obtained under control conditions was set at 100. n=2. Means+/−SEM.**, p<0.01, ***, p<0.001 and ****, p<0.0001 compared to the drug-free control (One-way ANOVA).
For this test, the effect of the molecules on transactivation by the extracellular or intracellular Tat protein was monitored by the activity of two luciferases. On the one hand the Firefly luciferase, which is under the control of a viral promoter LTR dependent on the Tat protein, and on the other hand the Renilla luciferase (internal control), under the control of a Thymidine kinase cellular promoter independent of the Tat protein. Transactivation is expressed by the Firefly/Renilla ratio. All plasmids and the procedure have been described (Mol Biol Cell 15 (2004), 2347).
This series of experiments was carried out in the HeLa line. Cells were transfected with PEImax (Nature Comms 9 (2018) 2251). The drugs and Tat (if Tat extra) were added 18 h after transfection as indicated, and left for 24 h before lysing the cells. The luciferases are then assayed using Promega's Dual-Glo kit and a Tecan SPARK 10M plate reader. Extracellular Tat has the property of being able to enter into the cells.

latent cell line ACH-2 = experiment: Specificity: HIV-1 production in ACH-2 latent cells with mutated TAR (p24 ELISA); type: cell-based; settings: compound (2), SAHA 5 μM, BST-1 10 nM
Description: Means+/−SEM. ****, p<0.0001 compared to the solvent control (One-way ANOVA).
Once induced, these cells produce infectious virions. For these tests, the viral antigen p24 in the cell supernatant was assayed with the Innotest p24 ELISA kit.

[3] = target: T1, Tat-TAR transcription complex (Human immunodeficiency virus type 1 group M subtype B, UniProt P69697); experiment: Retardation gel, affinity for Tat-TAR complex; type: binding, HIV-1
T1 construct: made in house; host or cells: E. coli
Description: FIG. 1A Delay gel showing the migration of TAR RNA which is free or complexed with the Tat protein (Tat/TAR) in the presence of different concentrations (0 to 120 nM) of the compound (2) (C-2). Tat (400 nM) was incubated with 200 nM of TAR-FAM (WT or Abulge) for 1.5 h in the absence or presence of the compound (2), before separation on a 0.5×TBE 8% acrylamide gel, and acquisition of the fluorescence image. The proteins from the gel were then transferred to a nitrocellulose membrane for Tat visualization by Western blot.
FIG. 1B Quantification of the affinity of the compound (2) (C-2) for the Tat-TAR transcription complex. The Tat-TAR fluorescence band of duplicate gels was quantified and the results are shown in the graph (AU, arbitrary units). n=2. Means+/−SEM. *, p<0.05; ***, p<0.001 compared to the control without the compound (2) (One-way ANOVA).
The affinity of the compound (2) for the Tat-TAR complex was studied by retardation gel. […] The fluorescence of the gel is first visualized with a Chemidoc (Biorad) to detect fluorescein (that is to say TAR). […]

[4] = target: T2, Tat protein (86 residues, isolate BH10) (Human immunodeficiency virus type 1 group M subtype B, UniProt P69697); experiment: Fluorescence polarization binding of compound to recombinant Tat protein; set-up: species or system HIV-1
T2 construct: The recombinant Tat protein (86 residues, isolate BH10); made in house; host or cells: E. coli
Description: (§1) The recombinant Tat protein (86 residues, isolate BH10) was produced in E. coli and purified on heparin-Sepharose then by HPLC as described (Mol Biol Cell 15 (2004), 2347). The compound (2) (MolPort) being fluorescent (λex 320 nm; λem 410 nm), the fluorescence polarization technique (Methods Appl. Fluoresc. (2016) 4(2)) and a PTI fluorimeter were used for the study of the binding of said compound (17 nM) to the Tat protein (1-60 μM) in citrate buffer (50 mM citrate; 150 mM NaCl; pH 7.2). A Kd of the order of 5 μM was measured. An identical value (˜4 μM) was obtained by surface plasmon resonance (SPR; Biacore) by passing the compound (2) in citrate buffer over immobilized Tat on a CMS chip.

[5] = system: latent OM10.1 cells (promyeloblasts); experiment: LRA activity on OM10.1 latent cells (p24 ELISA); type: cell-based; settings: 5 μM, p24 in supernatant
Description: FIG. 3B LRA activity of the compound (2) (C-2) and SAHA at 5 μM on latent OM10.1 cells (promyeloblasts). These latent cells, after induction, produce infectious viruses which are assayed in the supernatant by ELISA p24. n=2. Means+/−SEM.*, p<0.05 and ***, p<0.001 compared to the control medium alone (One-way ANOVA).
The results for the compound (2) were confirmed using another latent cell line, OM10.1 (promyeloblasts; source NARP; PLoS Pathog. 11 (2015) 1) which produces infectious HIV after induction. It was assayed by the viral antigen p24 (HIV-1 capsid protein) in the supernatant using an ELISA kit (Innotest).

[6] = target: T2, Tat protein (86 residues, isolate BH10); experiment: Surface plasmon resonance (Biacore) on immobilized Tat; type: binding, HIV-1
Description: as §1

Tat protein [7] = experiment: Transactivation test on primary T-CD4 cells; type: cell-based, HIV-1; settings: primary T-CD4 cells transfected with Tat, 24 h
Description: FIG. 6 Transactivation test on primary T-CD4 cells. Primary T-CD4 cells were isolated from the blood of healthy donors, then they were transfected with plasmids containing Tat, LTR-firefly and TK-renilla. 18 h after transfection different concentrations of the compound (2) (C-2) were added, and the lysed cells for the luciferase tests 24 h later. n=3. Means+/−SEM. *, p<0.05 and ***, p<0.001 compared to the control without C-2 (One-way ANOVA).
To verify this point, a transactivation test was carried out with primary T-CD4 cells. […] The need to use doses 100 times higher on cancerous cells (that is to say 5-10 μM) is due to the cancerization process of these cells.

T1 sequence (P69697 whole entry, one chain of several): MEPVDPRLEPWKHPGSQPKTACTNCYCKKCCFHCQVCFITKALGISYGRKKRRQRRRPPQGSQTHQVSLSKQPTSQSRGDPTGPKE
T2 sequence (P69697 whole entry): as the sequence (P69697 whole entry, one chain of several) above

| SMILES | LRA activity (in words) (J-Lat 9.2 latent cells) | LRA efficacy compared with BST-1 [1] | transactivation by extracellular Tat relative to control (Tat protein [2]) [times] | transactivation by intracellular Tat relative to negative control (Tat protein [2]) [times] | induction of HIV-1 production (p24) (latent cell line ACH-2) | concentration stabilizing the Tat-TAR transcription complex [3] | Kd ([3]; retardation gel, 400 nM Tat, 200 nM TAR, 1.5 h at 25° C.) [µM] | Kd [4] [µM] | LRA activity relative to that of SAHA [5] [%] | Kd [6] [µM] | concentration most effective in activating transactivation by Tat (Tat protein [7]) [nM] | concentration sufficient for the LRA effect ex vivo ([1]; latent primary cells) | effective concentrations on laboratory cell lines (Tat protein [2]; all the tests on laboratory cell lines (HeLa and That)) [µM] |
| --- | --- | --- | --- | --- | --- | --- | --- | --- | --- | --- | --- | --- | --- |
| O=C(Nc1ccc(-c2nc3ccccc3[nH]2)cc1)c1cccc(OCc2ccccc2)c1 [(3), N-[4-(1H-1,3-benzodiazol-2-yl)phenyl]-3-(benzyloxy)benzamide] | close to that of SAHA | at least as effective as BST-1 | 108 | 9 | – | – | – | – | – | – | – | – | – |
| COc1cc(C(=O)Nc2cc(-c3nc4ccccc4[nH]3)ccc2C)ccc1OCc1ccc(Cl)cc1 [Compound (2), N-[5-(1H-1,3-benzodiazol-2-yl)-2-methylphenyl]-4-[(4-chlorophenyl)methoxy]-3-methoxybenzamide] | – | at least as effective as BST-1 | 60 | 3.9 | incapable of inducing the production of HIV-1 | 50 to 100 nM and 80 nM | ~0.08 | ~5 | ~40 | ~4 | 30 | 50 to 100 nM and 50 nM | ~5 |
| COc1ccc(-c2nn3ccnc3s2)cc1NC(=O)c1ccc(OCc2ccccc2)cc1 [(1), 4-(benzyloxy)-N-(5-{imidazo[2,1-b][1,3,4]thiadiazol-2-yl}-2-methoxyphenyl)benzamide] | significant activity | – | – | – | – | – | – | – | – | – | – | – | – |
